Literature values in article PMC10784415 (Developmental dynamics : an official publication of the …, 2023).

Tested on: tooth buds
Settings: animal studies; cited from earlier work

COc1cc2nccc(Oc3ccc(NC(=O)Nc4cc(C)on4)c(Cl)c3)c2cc1OC [tivozanib]
Effect on tooth buds: shallower or narrower tooth buds
